In patent EP1724268A1, “COMPOUND HAVING TGF-BETA INHIBITORY ACTIVITY AND PHARMACEUTICAL COMPOSITION CONTAINING SAME” (KIRIN BEER KABUSHIKI KAISHA, priority 2004, dated 2005):
Read-outs that look alike come from different tables or passages of the source.

Tested on: TGFβ signal
Test: TGFβ signal inhibitory activity, (SBE)4-Luc reporter in A549 cells (Test Examples 1A and 1B)
Format: cell-based, human
Conditions: Homo sapiens, A549, read-out: TGFβ inhibition rate, %
Procedure: Test Example 1A: TGFβ signal inhibitory activity (in vitro test) The compounds according to the present invention was evaluated for TGFβ signal inhibitory activity according to the method described in J. Boil .Chem., 273, 21145-21152 (1998). Specifically, a plasmid having four tandem binding sequences of Smad3, a TGF-beta signal transducer, to the upstream of a luciferases gene were used as a reporter plasmid ((SBE)4-Luc) to detect TGF-beta signal, This reporter gene was introduced into human pulmonary carcinoma epithelial cells (A549) (available from ATCC) to establish a stable cell line. A test compound and TGFβ-1 (2 ng/ ml) were added to the cells, and the mixture was cultured for 4 hr. In this case, the compounds according to the present invention synthesized in the Examples were used as the test compound. After the culture, the luciferase activity of the cells were measured by chemiluminescence (Steady Glo (trademark) luciferase assay system, available from Promega). Likewise, the luciferase activity was measured as a control against the culture of cells with the addition of TGFβ only and the culture of cells without the addition of both TGFβ and the test compound.
The TGFβ inhibition (%) was calculated by the following equation, based on the measurement results. TGFβ inhibition(%) = (A-B)/(A-C) × 100 [formula] wherein • A: luciferase activity with the addition of TGFβ1 and without the addition of test compound (relative luciferase unit), • B: luciferase activity with the addition of both TGFβ1 and test compound (relative luciferase unit), and • C: luciferase activity without the addition of both TGFβ1 and test compound (relative luciferase unit).
The test was carried out for each of test compound at the concentrations of 3 µM and 10 µM. For certain test compounds, the test was further carried out for test compound at the concentration of 1 µM.
For the compounds of Reference Examples, the TGFβ signal inhibitory activity was evaluated in the same manner as in Test Example 1A.

[1] = test compound 3 µM, Reference Examples, Table 1B
[2] = test compound 10 µM, Reference Examples, Table 1B
[3] = 3 µM, compounds of Reference Examples (Test Example 1B)
[4] = 10 µM, compounds of Reference Examples (Test Example 1B)
[5] = test compound 3 µM, TGFβ-1 2 ng/ml, 4 hr, Table 1A
[6] = test compound 10 µM, TGFβ-1 2 ng/ml, 4 hr, Table 1A

**Q.** What does the source list for `COc1cc2c(Oc3ccc(C)cc3C(=O)c3ccccc3)ccnc2cc1OCCN1CCC(CO)CC1` [Compound r126]?
**A.** inhibition at 3 µM [1]: 100%; inhibition at 10 µM [2]: 100%

**Q.** What does the source list for `COc1cc2nccc(Oc3ccc4[nH]ccc4c3)c2cc1OC` [r293]?
**A.** inhibition at 3 µM [3]: 65%; inhibition at 10 µM [4]: 95%

**Q.** With `Cc1cc(Oc2ncnc3ccc(Cl)cc23)c(-c2ccccn2)nc1C` [Compound 24, 6-Chloro-4-(5,6-dimethyl-[2,2']bipyridin-3-yloxy)-quinazoline] as the compound, how does the inhibition at 3 µM [5] read?
**A.** 90%

**Q.** And the inhibition at 10 µM [6]?
**A.** 99%

**Q.** Which results are given for `COc1cc2nccc(Oc3cc4ccccc4nc3C)c2cc1OCC(O)CO` (stereo not drawn) [r417]?
**A.** inhibition at 3 µM [3]: 98%; inhibition at 10 µM [4]: 100%

**Q.** How did the inhibition at 3 µM [3] turn out when `COc1cc2c(Oc3cc(C)c(C)nc3-c3cccc(C)n3)ccnc2cc1OCCNCCO` [Compound r468] was run?
**A.** 99%

**Q.** `COc1cc2nccc(Oc3ccc4ncccc4c3)c2cc1OC` [r24] was tested. Which inhibition at 3 µM [1] did it give?
**A.** 66%

**Q.** What about the inhibition at 10 µM [2] of the same compound?
**A.** 91%

**Q.** For `COc1cc2nccc(Oc3cc(C)c(C)cc3C(C)=NNc3ccccn3)c2cc1OC` [Compound r194], which inhibition at 3 µM [3] is on record?
**A.** 47%

**Q.** And the inhibition at 10 µM [4]?
**A.** 94%

**Q.** Which results are given for `CCOC(=O)c1ccc(C)cc1Oc1ccnc2cc(OC)c(OC)cc12` [Compound r82]?
**A.** inhibition at 3 µM [1]: 90%; inhibition at 10 µM [2]: 99%

**Q.** How did the inhibition at 3 µM [3] turn out when `COc1cc2c(Oc3cc(C)c(C)nc3-c3cccc(C)n3)ccnc2cc1OCC(CO)CO` [Compound r448] was run?
**A.** 70%

**Q.** What about the inhibition at 10 µM [4] of the same compound?
**A.** 97%

**Q.** For `COc1cc2c(Oc3cc(C)c(C)cc3C(C)=O)ccnc2cc1OCc1ccccc1` [Compound r313], which inhibition at 3 µM [3] is on record?
**A.** 56%

**Q.** What about the inhibition at 10 µM [4] of the same compound?
**A.** 94%

**Q.** Which results are given for `Cc1cc(Oc2ncnc3sc(C)c(C)c23)c(-c2ccccn2)nc1C` [Compound 35, 3-(5,6-Dimethyl-thieno[2,3-d]pyrimidin-4-yloxy)-5,6-dimethyl-[2,2']bipyridine]?
**A.** inhibition at 3 µM [5]: 95%; inhibition at 10 µM [6]: 100%

**Q.** Which results are given for `CCCCC(=O)c1cc(C)ccc1Oc1ccnc2cc(OC)c(OC)cc12` [Compound r52]?
**A.** inhibition at 3 µM [1]: 97%; inhibition at 10 µM [2]: 100%

**Q.** What does the source list for `COc1cc2nccc(Oc3ccc(C)nc3-c3ccccc3)c2cc1OC` [Compound r223, 6,7-Dimethoxy-4-(6-methyl-2-phenyl-pyridin-3-yloxy)-quinoline]?
**A.** inhibition at 3 µM [3]: 99%; inhibition at 10 µM [4]: 100%

**Q.** Which inhibition at 3 µM [3] does the source give for `COc1cc2c(Oc3cc4ccccc4nc3C(C)=O)ccnc2cc1OCC(CO)CO` [Compound r396] here?
**A.** 96%

**Q.** `COc1cc2nccc(Oc3ccc(C)nc3-c3cc(C)nn3C)c2cc1OC` [Compound r257] was tested. Which inhibition at 3 µM [3] did it give?
**A.** 15%

**Q.** What about the inhibition at 10 µM [4] of the same compound?
**A.** 62%

**Q.** Which results are given for `Cc1cc(Oc2ccnc3ccc(Cl)c(Cl)c23)c(-c2ccccn2)nc1C` [Compound 130, 3-(5,6-Dichloro-quinolin-4-yloxy)-5,6-dimethyl-[2,2']bipyridine]?
**A.** inhibition at 3 µM [5]: 100%; inhibition at 10 µM [6]: 100%

**Q.** Which inhibition at 1 µM (test compound 1 µM, TGFβ-1 2 ng/ml, 4 hr, Table 1A) does the source give for `c1ccc(-c2cc3nccc(Oc4cc5cccnc5nc4-c4ccccc4)c3s2)cc1` [Compound 72, 2-Phenyl-3-(2-phenyl-thieno[3,2-b]pyridin-7-yloxy)-[1,8]naphthyridine] here?
**A.** 81%

**Q.** And the inhibition at 3 µM [5]?
**A.** 99%

**Q.** With `CCCOC(=O)c1cc2ccccc2cc1Oc1ccnc2cc(OCCn3ccnc3)c(OC)cc12` [Compound r324] as the compound, how does the inhibition at 3 µM [3] read?
**A.** 86%

**Q.** And the inhibition at 10 µM [4]?
**A.** 100%

**Q.** For `COc1cc2nccc(Oc3ccc(C)nc3-c3ccccc3C)c2cc1OC` [Compound r224], which inhibition at 3 µM [3] is on record?
**A.** 69%

**Q.** What about the inhibition at 10 µM [4] of the same compound?
**A.** 96%

**Q.** How did the inhibition at 3 µM [3] turn out when `COc1cc2nccc(Oc3cc(C)c(C)cc3I)c2cc1OC` [Compound r164, 4-(2-Iodo-4,5-dimethyl-phenoxy)-6,7-dimethoxy-quinoline] was run?
**A.** 54%

**Q.** And the inhibition at 10 µM [4]?
**A.** 98%

**Q.** Which inhibition at 3 µM [5] does the source give for `COc1cc2c(Oc3cc4cccnc4nc3-c3ccccc3)ccnc2cc1OCCO` [Compound 178, 2-[6-Methoxy-4-(2-phenyl-[1,8]naphthyridin-3-yloxy)-quinolin-7-yloxy]-ethanol] here?
**A.** 100%

**Q.** And the inhibition at 10 µM [6]?
**A.** 100%

**Q.** Which results are given for `CCOC(=O)C1CCCN(CCOc2cc3nccc(Oc4cc5ccccc5nc4C)c3cc2OC)C1` (stereo not drawn) [Compound r361]?
**A.** inhibition at 3 µM [3]: 96%; inhibition at 10 µM [4]: 100%
